Results: PubChem BioAssay (NCI)
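Test compounds were applied to cells in 96-well plates for 48 hours at 5 doses. TGI: total growth inhibition.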

Assays:
Test in all cases: NCI tumour cell line growth inhibition, 48 h
NCI-H522 lung = tested on: NCI-H522 lung
NCI-H23 lung = tested on: NCI-H23 lung
LOX IMVI melanoma = tested on: LOX IMVI melanoma
SK-MEL-5 melanoma = tested on: SK-MEL-5 melanoma
HOP-92 NSCLC = tested on: HOP-92 NSCLC
MDA-MB-435 = tested on: MDA-MB-435
SF-539 CNS = tested on: SF-539 CNS
SK-OV-3 ovarian = tested on: SK-OV-3 ovarian
T-47D breast = tested on: T-47D breast
SN12C renal = tested on: SN12C renal

Row | Structure (SMILES) | TGI (NCI-H522 lung) [µM] | TGI (NCI-H23 lung) [µM] | TGI (LOX IMVI melanoma) [µM] | TGI (SK-MEL-5 melanoma) [µM] | TGI (HOP-92 NSCLC) [µM] | TGI (MDA-MB-435) [µM] | TGI (SF-539 CNS) [µM] | TGI (SK-OV-3 ovarian) [µM] | TGI (T-47D breast) [µM] | TGI (SN12C renal) [µM]
1 | Clc1sc(Cl)c2c1[C@@H](Cl)C[C@@H]2Cl | 58.2 | > 100 | > 100 | > 100 | > 100 | > 100 | > 100 | > 100 | > 100 | > 100
2 | NNC(=O)Nc1nc2ccc(NN)cc2[nH]1 | 92.6 | > 100 | > 100 | 51.9 | 57.3 | 54 | 28.5 | > 100 | > 100 | > 100
3 | O=C(c1ccccc1)c1ccc2nc(-c3c(Cl)c(Cl)c(Cl)c(Cl)c3-c3nnc(-c4ccccc4)o3)[nH]c2c1 | 55.7 | > 100 | > 100 | 54.1 | > 100 | > 100 | > 100 | > 100 | > 100 | 81.7
4 | O=C(O)CSc1ccccc1C(=O)O | > 100 | > 100 | > 100 | > 100 | > 100 | > 100 | > 100 | > 100 | > 100 | > 100
5 | Cc1c(C(=O)c2ccc(N)c3ccccc23)c2ccccc2n1CCN1CCOCC1 | 58.4 | > 100 | 59 | 33.7 | 75.6 | 37 | 50.8 | > 100 | > 100 | > 94.1
6 | Cc1cccc2c(N)c3cccc(C(=O)NCC[N+](C)(C)Cc4ccc([N+](=O)[O-])s4)c3nc12 | 28.2 | 21.9 | 18.6 | 28.2 | 68.8 | > 63.9 | 23.9 | > 75.9 | > 67.6 | 49
7 | COC(=O)[C@@H]1CS(=O)(=O)C(C(C)C)N1C(C)=O (stereo not given in full) | > 100 | > 100 | > 100 | > 100 | > 100 | > 100 | > 100 | > 100 | > 100 | > 100
8 | C[C@]12CC[C@H]3[C@@H](CCC4=CC(=O)C=C[C@@]43OC(=O)C(F)(F)F)[C@@H]1CCC2=O | > 100 | > 100 | > 100 | > 100 | > 100 | > 100 | > 100 | > 100 | > 100 | > 100
9 | Cc1ccc(S(=O)(=O)N2C[C@@H]3CC[C@]4(CO[Si](C)(C)C(C)(C)C)N[C@@H](c5ccccc5)[C@H]2[C@H]34)cc1 | > 100 | > 100 | > 100 | 30.6 | 28.7 | > 100 | > 100 | > 100 | 52.6 | 76.2
